Measurements published in US20150073008A1, “Topical Application of Vinca Alkaloids for the Treatment of Actinic Keratosis” (Merz Pharma GmbH & Co. KGaA, priority 2013, published 2015).
Where a name gives a salt, the structure may show the parent alone. Read-outs that look alike come from different tables or passages of the source.

What was measured:
SCC-111 cells [1] = conditions: for DCF-value: after repeating the experiments several times
[2] = test system: proliferating and non-proliferating cells; assay: Comparative test of cell density as a function of time (normal and high cell density); type: cell-based
SCC-111 cells [3] = assay: cells; conditions: Homo sapiens, read-out: in vitro IC50-value (in SCC-111 cells)
Stability at pH 5.5 = type: physicochemical
Description: Some topical formulations may have a reduced stability at a temperature of 37° C. and a pH-value of 7 or more, e.g. a pH-value of 7.4.

Solubility = conditions: pH 6.5
[4] = test system: human skin (Leiden epidermal skin); assay: Methylthiazol Tetrazolium-Assay (MTT) skin irritation, in vitro human skin model; type: cell-based; conditions: doses of 100-times the in vitro IC50-values; irritant = metabolic activity of skin model reduced to ≦50%
Text: This leads to the option to apply the vinca-compositions not only to single affected skin lesions (“spots”) but also to larger areas of the skin, e.g. for “field treatment”, and often even >5% (or >10%) of the skin surface (of the individual).

[5] = Dermal absorption study with human skin (Franz diffusion cells, 3H-API); conditions: different concentrations and formulations (cream, liposomes, hydro-tops)
Description: The vinca alkaloids were tested in different concentrations and in different formulations (such as cream, liposomes and hydro-tops).
Skin Preparations: Female human abdominal skins from plastic surgery were used. The subcutaneous fatty tissue was removed from the skin and then frozen at −20° C. with aluminium foil packed for later tests. Before use, skin disks of 18 mm diameter were punched, cleaned with PBS (phosphate buffered saline, pH 7.4, 10 mM) and thaw with the stratum corneum (SC) side up open to the atmosphere and the dermal side bathed with PBS for 2 hrs.
The dermal side of the skin was exposed to the receptor fluid (PBS) and the SC remained in contact with the donor compartment left dry and opened to the atmosphere. The temperature of the water bath was maintained at 37±0.1° C. The receptor solution was continuously stirred at 700 rpm with a small bar magnet placed inside the cell. Ten μl of Hydro-Tops or liposomes or 10 mg of the cream formulation were applied onto the skin's surface and uniformly spread by pipettes or spatula. The spatula was weighted again after the application of the cream to determine the applied dose. This means an application dose of 1 μg API per square cm. Samples (0.7 ml) were taken from the receptor fluid at 3, 6, 12, 18 and 24 hrs after application. At each point, the receptor cell content was replaced by 0.7 ml of fresh PBS solution. Three replicates were used for the studies (same skin preparations)
Tape Stripping: The distribution of API in the stratum corneum was determined by the tape stripping technique. After 24 hours the skin was taken, stretched and mounted with pins on cork discs and covered with aluminium mask with a central hole of 8 mm in diameter. […]
Measurement of 3H-API: The samples (standards, strips and fluids) were mixed with 12 ml Rotiszint eco plus (scintillation cocktail purchased from Carl Roth) and carefully vortexed for at least 1 minute. […] The activity in each sample was determined in a scintillation counter (Tri-Carb 2910TR Liquid Scintillation Analyzer; Perkin Elmer) by a standardized protocol.

[6] = IC50 in 0% FBS divided by IC50 in 20% FBS, SCC-111 cells
[7] = read-out: in vitro IC50-value (in SCC-111 cells), SCC-111 cells, serum condition not stated

COc1cc([C@@H]2c3cc4c(cc3[C@@H](O[C@@H]3O[C@@H]5CO[C@@H](c6cccs6)O[C@H]5[C@H](O)[C@H]3O)[C@H]3COC(=O)[C@H]23)OCO4)cc(OC)c1O [Teniposide]
DCF-value (SCC-111 cells [1]; [6]): 5.76

O=c1[nH]cc(F)c(=O)[nH]1 [Example 5-FU, 5-Fluorouracil]
DCF-value (SCC-111 cells [1]; [6]): 0.73 | effect on number of cells at normal (proliferating) and high (non-proliferating) cell density [2]: cells were affected, independent of their proliferation-status | IC50 (SCC-111 cells [3]): 960000 pM

COc1cccc2c1C(=O)c1c(O)c3c(c(O)c1C2=O)C[C@@](O)(C(=O)CO)C[C@@H]3O[C@H]1C[C@H](N)[C@@H](O)[C@H](C)O1 [Epirubicin, Epirubicin HCL]
DCF-value (SCC-111 cells [1]; [6]): 6.05

Vinblastine sulfate hydrate
stability (compound remaining) (Stability at pH 5.5; pH 5.5, test for 7 days, 5° C.): 97% | solubility (Solubility): 0.25% | DCF-value (SCC-111 cells [1]; [6]): 19.87 | IC50 (SCC-111 cells [1]; [7]): 870 pM | skin irritation rating in MTT assay [4]: not rated as irritant

CC[C@]1(O)C[C@H]2CN(CCc3c([nH]c4ccccc34)[C@@](C(=O)OC)(c3cc4c(cc3OC)N(C=O)[C@H]3[C@@](O)(C(=O)OC)[C@H](OC(C)=O)[C@]5(CC)C=CCN6CC[C@]43[C@@H]65)C2)C1 [Vincristine, Vincristine sulfate]
stability (compound remaining) (Stability at pH 5.5; buffer, 168 h, pH 5.5): 99.6% | dermal absorption (in words) [5]: good dermal absorption | DCF-value (SCC-111 cells [1]; [6]): 5.86 | skin irritation rating in MTT assay [4]: not rated as irritant | solubility in water (pH 5.5): 0.57 % by weight | IC50 (SCC-111 cells [3]): 920 pM

CC[C@]1(O)C[C@@H]2CN(CCc3c([nH]c4ccccc34)[C@@](C(=O)OC)(c3cc4c(cc3OC)N(C)[C@H]3[C@@](O)(C(N)=O)[C@H](O)[C@]5(CC)C=CCN6CC[C@]43[C@@H]65)C2)C1 [Vindesine, Vindesine sulfate hydrate]
stability (compound remaining) (Stability at pH 5.5; buffer, 168 h, pH 5.5): 98.8% | dermal absorption (in words) [5]: good dermal absorption | DCF-value (SCC-111 cells [1]; [6]): 11.43 | DCF-value (differential cytotoxicity factor) from FIGS. 1 and 2 (SCC-111 cells [1]; IC50 in 0% FBS divided by IC50 in 20% FBS, single example experiment): > 10 | IC50 (SCC-111 cells [1]; read-out: IC50-value, 0% FBS medium cultivated cells (FIG. 2), SCC-111, 0% FBS (low proliferation), DNA-content, 72 hours): 3500 pM | IC50 (SCC-111 cells [1]; read-out: IC50-value, 20% FBS medium cultivated cells (FIG. 1), SCC-111, 20% FBS (high proliferation), DNA-content, 72 hours): 340 pM | IC50 (SCC-111 cells [1]; [7]): 570 pM | skin irritation rating in MTT assay [4]: not rated as irritant

CCC1=C[C@@H]2CN(C1)Cc1c([nH]c3ccccc13)[C@@](C(=O)OC)(c1cc3c(cc1OC)N(C)[C@H]1[C@@](O)(C(=O)OC)[C@H](OC(C)=O)[C@]4(CC)C=CCN5CC[C@]31[C@@H]54)C2 [Vinorelbine]
stability (compound remaining) (Stability at pH 5.5; buffer, 168 h, pH 5.5): 99.5% | dermal absorption (in words) [5]: good dermal absorption | DCF-value (SCC-111 cells [1]; [6]): 6.42 | skin irritation rating in MTT assay [4]: not rated as irritant | solubility (pH 6.5): 0.7% | IC50 (SCC-111 cells [3]): 1340 pM
